Measurements as given in patent publication EP4678638A1, “NEW E3 UBIQUITIN LIGASE LIGAND, PROTEIN DEGRADATION AGENT AND USE THEREOF” (priority 2023, dated 2024).

How the values were obtained:
[1] = test system: H1975; assay: CCK-8 proliferation, NCI-H1975 (H1975); type: cell-based, Human; conditions: Homo sapiens, NCI-H1975; CCK-8; 96 hours; read-out: Inhibitory activity (IC50) on tumor cell proliferation, H1975
Procedure, shortened: (§1)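 CCK-8 viability readout; IC50 from growth-inhibition curve fitting. Cells plated, dosed 24h later with a 10-point series, top 10µM, 5-fold steps. Culture at 37°C, 5% CO2.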

[2] = test system: MM.1R; assay: CCK-8 proliferation, MM.1R; type: cell-based; conditions: CCK-8, 72 hours, read-out: Inhibitory activity (IC50) on tumor cell proliferation, MM.1R
Protocol: (§2) The tumor cells used herein were cultured in a cell culture medium listed in table A1 at 37°C in an incubator with 5% CO2. Prior to experimentation, all cell lines used were correctly identified by STR profiling, and tested negative for mycoplasma contamination using a mycoplasma detection kit through routine screenings. Table A1. Tumor cells and cell culture medium used in the present disclosure
(§3) IC50 values of the compounds of the present disclosure (including the compounds in Table 1, and compounds of examples) were measured using the Meilun Cell Counting Kit-8 kit from Dalian Meilun Biotech Co., Ltd. Assay details are as follows: tumor cells were seeded in a 96-well plate at a density listed in Table A2. After 24h, 100 µL of the inoculated cells were treated with 0.5µL of the compounds of the present disclosure (including the compounds in Tables 1 and 2, and compounds of examples) at 10 different successively decreasing concentrations (starting at the highest concentration of 10µM; 5-fold serial dilutions). After the cells were treated with the compounds of the present disclosure for a period of time, the cell viability detection reagent was added to the culture medium for cell viability assessment according to the instructions provided with the CCK-8 kit. […] The growth inhibition of the compounds of the present disclosure on cells was plotted by Prism Graphpad software, and the IC50 values of the compounds of the present disclosure were calculated therefrom. […] Seeding protocol and treatment time for tumor cells

[3] = test system: SW620; assay: CCK-8 proliferation, SW620; type: cell-based; conditions: Homo sapiens, SW-620; CCK-8; 96 hours; read-out: Inhibitory activity (IC50) on tumor cell proliferation, SW620
Protocol: as §2, §3

[4] = test system: PC-9; assay: CCK-8 proliferation, PC-9; type: cell-based, Human; conditions: Homo sapiens, PC-9; CCK-8; 96 hours; read-out: Inhibitory activity (IC50) on tumor cell proliferation, PC-9
Procedure, shortened: as §1

[5] = test system: H2228; assay: CCK-8 proliferation, NCI-H2228 (H2228); type: cell-based; conditions: Homo sapiens, NCI-H2228; CCK-8; 96 hours; read-out: Inhibitory activity (IC50) on tumor cell proliferation, H2228
Procedure, shortened: as §1

[6] = test system: 22RV1; assay: CCK-8 proliferation, 22RV1; type: cell-based; conditions: Homo sapiens, 96 hours, read-out: Inhibitory activity (IC50) on tumor cell proliferation, 22RV1
Protocol: as §2, §3

[7] = test system: MM.1S; assay: CCK-8 proliferation, MM.1S; type: cell-based; conditions: Homo sapiens, MM1.S; CCK-8; 72 hours; read-out: Inhibitory activity (IC50) on tumor cell proliferation, MM1S
Procedure, shortened: as §1

[8] = test system: MCF7; assay: CCK-8 proliferation, MCF7 (MCF-7); type: cell-based; conditions: Homo sapiens, MCF7; CCK-8; read-out: Inhibitory activity (IC50) on tumor cell proliferation, MCF7
Procedure, shortened: as §1

[9] = test system: CCRF-CEM; assay: CCK-8 proliferation, CCRF-CEM; type: cell-based, Human; conditions: Homo sapiens, CCRF-CEM; CCK-8; 96 hours; read-out: Inhibitory activity (IC50) on tumor cell proliferation, CCRF-CEM
Procedure, shortened: as §1

[10] = target: T1, CDK6 (Homo sapiens, UniProt Q00534); assay: Western blot degradation of CDK6 (MDA-MB-231 Cell); type: cell-based; conditions: Table D3
T1 construct: evaluate the effects of the compounds of the present disclosure on the expression of target proteins in cells; endogenous in cells; host or cells: MDA-MB-231
T1 sequence (Q00534 whole entry): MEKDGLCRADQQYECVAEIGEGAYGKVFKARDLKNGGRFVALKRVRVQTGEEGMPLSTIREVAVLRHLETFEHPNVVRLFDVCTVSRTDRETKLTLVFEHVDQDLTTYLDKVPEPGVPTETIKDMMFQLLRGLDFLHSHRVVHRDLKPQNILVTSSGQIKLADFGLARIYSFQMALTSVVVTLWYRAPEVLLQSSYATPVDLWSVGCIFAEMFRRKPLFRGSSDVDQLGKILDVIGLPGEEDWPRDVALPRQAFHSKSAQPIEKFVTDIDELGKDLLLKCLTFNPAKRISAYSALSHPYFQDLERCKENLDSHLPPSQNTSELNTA
Procedure, shortened: (§4)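 Degradation is assessed by immunoblotting lysates of treated cells. Target bands are quantified by grayscale and normalised to an internal control, so degradation rate equals 100% minus % remaining.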

[11] = test system: SR; assay: CCK-8 proliferation, SR; type: cell-based, Human; conditions: Homo sapiens, SR; CCK-8; 72 hours; read-out: Inhibitory activity (IC50) on tumor cell proliferation, SR
Procedure, shortened: as §1

[12] = target: T2, CDK4 (Homo sapiens, UniProt P11802); assay: Western blot degradation of CDK4 (MDA-MB-231 Cell); type: cell-based; conditions: Table D3
T2 construct: evaluate the effects of the compounds of the present disclosure on the expression of target proteins in cells; endogenous in cells; host or cells: MDA-MB-231
T2 sequence (P11802 whole entry): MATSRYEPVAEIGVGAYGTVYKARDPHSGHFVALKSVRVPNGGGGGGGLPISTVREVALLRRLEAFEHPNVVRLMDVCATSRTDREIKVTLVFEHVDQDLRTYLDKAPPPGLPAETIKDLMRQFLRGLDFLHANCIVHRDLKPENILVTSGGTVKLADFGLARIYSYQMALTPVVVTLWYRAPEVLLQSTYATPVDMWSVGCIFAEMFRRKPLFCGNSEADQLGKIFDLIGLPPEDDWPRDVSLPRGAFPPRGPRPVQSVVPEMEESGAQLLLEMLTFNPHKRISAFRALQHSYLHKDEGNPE
Procedure, shortened: as §4

[13] = test system: Kasumi-1; assay: CCK-8 proliferation, Kasumi-1; type: cell-based, Human; conditions: Homo sapiens, Kasumi 1, 72 hours, read-out: Inhibitory activity (IC50) on tumor cell proliferation, Kasumi-1
Protocol: as §2, §3

[14] = target: T3, human Cereblon WT GST-tagged protein (Homo sapiens, UniProt Q96SW2); assay: CRBN binding, HTRF (CEREBLON BINDING kit); conditions: Table II-2, CRBN binding screening, HTRF; for inhibition at 0.5 µM: read-out: Inhibition rate (%) at 0.5µM; for inhibition at 2 µM: read-out: Inhibition rate (%) at 2 µM
T3 construct: purchased CISBIO 64BDCRBNPEH
T3 sequence (Q96SW2 whole entry): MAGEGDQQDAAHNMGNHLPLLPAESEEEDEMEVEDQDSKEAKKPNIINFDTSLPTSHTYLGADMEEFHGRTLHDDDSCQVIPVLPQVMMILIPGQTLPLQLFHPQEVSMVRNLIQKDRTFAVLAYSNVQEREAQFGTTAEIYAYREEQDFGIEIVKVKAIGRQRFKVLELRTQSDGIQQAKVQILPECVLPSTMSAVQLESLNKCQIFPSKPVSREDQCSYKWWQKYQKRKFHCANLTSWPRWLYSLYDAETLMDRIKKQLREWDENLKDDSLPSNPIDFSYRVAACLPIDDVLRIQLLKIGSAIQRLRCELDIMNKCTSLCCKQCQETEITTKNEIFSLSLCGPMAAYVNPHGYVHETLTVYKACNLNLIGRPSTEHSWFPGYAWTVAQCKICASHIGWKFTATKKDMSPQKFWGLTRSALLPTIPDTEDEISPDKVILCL
Procedure, shortened: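 After 3 h at room temperature, emission at 665 and 620 nm was measured in a homogeneous time-resolved fluorescence format. Compounds competed with a Thalidomide-Re probe for GST-tagged wild-type human CRBN, which was labelled with a Eu anti-GST antibody.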

[15] = test system: Jurkat; assay: CCK-8 proliferation, Jurkat; type: cell-based, Human; conditions: Homo sapiens, Jurkat; CCK-8; 96 hours; read-out: Inhibitory activity (IC50) on tumor cell proliferation, Jurkat
Procedure, shortened: as §1

SMILES | IC50 [1] [µM] | IC50 [2] [µM] | IC50 [3] [µM] | IC50 [4] [µM] | IC50 [5] [µM] | IC50 [7] [µM] | IC50 [9] [µM] | further results
CN1CCN([C@@H]2CCCN(c3cnc(C(N)=O)c(Nc4ccc(C5CCN(Cc6cccc(N7CCC(=O)NC7=O)c6)CC5)cc4)n3)C2)C1=O [GT-04800, (R)-3-((4-(1-(3-(2,4-dioxotetrahydropyrimidin-1(2H)-yl)benzyl)piperidin-4-yl)phenyl)amino)-5-(3-(3-methyl-2-oxoimidazolidin-1-yl)piperidin-1-yl)pyrazine-2-carboxamide] |  | 0.5 to 1 |  | 0.1 to 0.5 | 0.5 to 1 |  |  | 
Cc1nc2c(F)cc(-c3nc(Nc4ccc(N5CCC(N6CCN(Cc7cc(N8CCC(=O)NC8=O)ncc7F)CC6)CC5)cn4)ncc3F)cc2n1C(C)C [GT-07486, 1-(5-fluoro-4-((4-(1-(6-((5-fluoro-4-(4-fluoro-1-isopropyl-2-methyl-1H-benzo[d]imidazol-6-yl)pyrimidin-2-yl)amino)pyridin-3-yl)piperidin-4-yl)piperazin-1-yl)methyl)pyridin-2-yl)dihydropyrimidine-2,4(1H,3H)-dione] | 0.05 to 0.1 |  |  |  |  | 0.05 to 0.1 | 0.1 to 0.5 | IC50 [6]: 0.01 to 0.05 µM; IC50 [8]: 0.05 to 0.1 µM
NC(=O)c1ncc(N2CCCCC2)nc1Nc1ccc(C2CCN(Cc3cccc(NC4CCC(=O)NC4=O)c3)CC2)cc1 (centres unmarked) [GT-04791, 3-((4-(1-(3-((2,6-dioxopiperidin-3-yl)amino)benzyl)piperidin-4-yl)phenyl)amino)-5-(piperidin-1-yl)pyrazine-2-carboxamide] |  | < 0.001 | 0.5 to 1 | 0.5 to 1 | 0.1 to 0.5 |  |  | 
Cc1nc2c(F)cc(-c3nc(Nc4ccc(N5CCC(N6CCN(Cc7ccc(C8CCC(=O)NC8=O)c(F)c7)CC6)CC5)cn4)ncc3F)cc2n1C(C)C (centres unmarked) [GT-03906, 3-(2-fluoro-4-((4-(1-(6-((5-fluoro-4-(4-fluoro-1-isopropyl-2-methyl-1H-benzo[d]imidazol-6-yl)pyrimidin-2-yl)amino)pyridin-3-yl)piperidin-4-yl)piperazin-1-yl)methyl)phenyl)piperidine-2,6-dione] | 0.1 to 0.5 | 0.05 to 0.1 |  |  |  | 0.01 to 0.05 | 0.1 to 0.5 | Degradation of substrate protein CDK6 (substrate protein remaining %) [10]: A (A is defined as 0% ≤ substrate protein remaining % ≤ 80%); IC50 [8]: 0.1 to 0.5 µM; IC50 [11]: 0.05 to 0.1 µM; Degradation of substrate protein CDK4 (substrate protein remaining %) [12]: A (A is defined as 0% ≤ substrate protein remaining % ≤ 80%); IC50 [13]: 0.05 to 0.1 µM
COc1cc(C(=O)NC2CCN(Cc3cccc(N4CCC(=O)NC4=O)c3)CC2)c(F)cc1Nc1ncc(C(F)(F)F)c(Oc2cccc3c2C(=O)N(C)C3)n1 [GT-04257, N-(1-(3-(2,4-dioxotetrahydropyrimidin-1(2H)-yl)benzyl)piperidin-4-yl)-2-fluoro-5-methoxy-4-((4-((2-methyl-3-oxoisoindolin-4-yl)oxy)-5-(trifluoromethyl)pyrimidin-2-yl)amino)benzamide] |  | 0.1 to 0.5 | 0.5 to 1 |  |  |  | 0.1 to 0.5 | inhibition at 0.5 µM [14]: 60 to 80%; inhibition at 2 µM [14]: 80 to 100%; IC50 [15]: 0.1 to 0.5 µM
Cc1nc2c(F)cc(-c3nc(Nc4ccc(N5CCC(N6CCN(Cc7ccc(C8CCC(=O)NC8=O)cc7)CC6)CC5)cn4)ncc3F)cc2n1C(C)C (centres unmarked) [GT-03905, 3-(4-((4-(1-(6-((5-fluoro-4-(4-fluoro-1-isopropyl-2-methyl-1H-benzo[d]imidazol-6-yl)pyrimidin-2-yl)amino)pyridin-3-yl)piperidin-4-yl)piperazin-1-yl)methyl)phenyl)piperidine-2,6-dione] | 0.1 to 0.5 | 0.05 to 0.1 |  |  |  | 0.05 to 0.1 | 0.1 to 0.5 | inhibition at 0.5 µM [14]: 40 to 53%; inhibition at 2 µM [14]: 53 to 60%; Degradation of substrate protein CDK6 (substrate protein remaining %) [10]: A (A is defined as 0% ≤ substrate protein remaining % ≤ 80%); Degradation of substrate protein CDK4 (substrate protein remaining %) [12]: A (A is defined as 0% ≤ substrate protein remaining % ≤ 80%); IC50 [13]: 0.05 to 0.1 µM
CN1CCN([C@@H]2CCCN(c3cnc(C(N)=O)c(Nc4ccc(C5CCN(Cc6ccc(N7CCC(=O)NC7=O)cc6)CC5)cc4)n3)C2)C1=O [GT-04802, (R)-3-((4-(1-(4-(2,4-dioxotetrahydropyrimidin-1(2H)-yl)benzyl)piperidin-4-yl)phenyl)amino)-5-(3-(3-methyl-2-oxoimidazolidin-1-yl)piperidin-1-yl)pyrazine-2-carboxamide] | 0.5 to 1 | 0.1 to 0.5 |  | 0.1 to 0.5 | 0.1 to 0.5 |  |  | 

Now from value to compound, other results behind:

IC50 [1] [µM] | IC50 [2] [µM] | IC50 [3] [µM] | IC50 [4] [µM] | IC50 [5] [µM] | IC50 [7] [µM] | IC50 [9] [µM] | SMILES | further results
0.5 to 1 | 0.1 to 0.5 | 0.5 to 1 | 0.1 to 0.5 | 0.1 to 0.5 |  |  | NC(=O)c1ncc(N2CCCCC2)nc1Nc1ccc(C2CCN(Cc3ccc(C4CCC(=O)NC4=O)cc3)CC2)cc1 (centres unmarked) [GT-04785, 3-((4-(1-(4-(2,6-dioxopiperidin-3-yl)benzyl)piperidin-4-yl)phenyl)amino)-5-(piperidin-1-yl)pyrazine-2-carboxamide] | 
0.5 to 1 | 0.5 to 1 |  | 0.1 to 0.5 | 0.1 to 0.5 |  |  | NC(=O)c1ncc(N2CCCCC2)nc1Nc1ccc(C2CCN(Cc3cccc(N4CCC(=O)NC4=O)c3)CC2)cc1 [GT-04787, 3-((4-(1-(3-(2,4-dioxotetrahydropyrimidin-1(2H)-yl)benzyl)piperidin-4-yl)phenyl)amino)-5-(piperidin-1-yl)pyrazine-2-carboxamide] | 
0.5 to 1 | 0.1 to 0.5 | 0.1 to 0.5 | 0.1 to 0.5 | 0.1 to 0.5 |  |  | CN1CCN([C@@H]2CCCN(c3cnc(C(N)=O)c(Nc4ccc(C5CCN(Cc6ccc(N7CCC(=O)NC7=O)cc6F)CC5)cc4)n3)C2)C1=O [GT-04803, (R)-3-((4-(1-(4-(2,4-dioxotetrahydropyrimidin-1(2H)-yl)-2-fluorobenzyl)piperidin-4-yl)phenyl)amino)-5-(3-(3-methyl-2-oxoimidazolidin-1-yl)piperidin-1-yl)pyrazine-2-carboxamide] | 
 | 0.5 to 1 |  |  |  |  |  | CN(Cc1ccc(C2CCC(=O)NC2=O)cc1)C1CCN(c2ccc(C(N)=O)c(-c3ccc(Oc4ccccc4)cc3)n2)CC1 (centres unmarked) [GT-03828, 6-(4-((4-(2,6-dioxopiperidin-3-yl)benzyl)(methyl)amino)piperidin-1-yl)-2-(4-phenoxyphenyl)nicotinamide] | 
0.05 to 0.1 |  |  |  |  | 0.01 to 0.05 | 0.05 to 0.1 | Cc1nc2c(F)cc(-c3nc(Nc4ccc(N5CCC(N6CCN(Cc7ccnc(N8CCC(=O)NC8=O)c7)CC6)CC5)cn4)ncc3F)cc2n1C(C)C [GT-07487, 1-(4-((4-(1-(6-((5-fluoro-4-(4-fluoro-1-isopropyl-2-methyl-1H-benzo[d]imidazol-6-yl)pyrimidin-2-yl)amino)pyridin-3-yl)piperidin-4-yl)piperazin-1-yl)methyl)pyridin-2-yl)dihydropyrimidine-2,4(1H,3H)-dione] | IC50 [6]: 0.01 to 0.05 µM; inhibition at 0.5 µM [14]: 30 to 40%; inhibition at 2 µM [14]: 53 to 60%; IC50 [8]: 0.01 to 0.05 µM
